# Columns and labels:
# HL-60 cell line = test: Intracellular 8-Cl-ATP/ATP by LC-MS/MS, HL-60; type: cell-based; conditions: for difference in intracellular accumulation of 8-Cl-ATP on inhibiting hENT1: HL-60, with NBTI
# Description: Cell lines with 3×10^6 cells/ml were used. Cells were treated with 1 μl of 20 μM of each 8-Cl-A, compound A, compound B and compound D and incubated for 2 hours at 37° C. with 5% CO2. After incubation, the cells were centrifuged (ambient, 1200 rpm, 5 minutes), the supernatant was removed, and the pellet was washed with lml of PBS and centrifuged (ambient, 1200 rpm, 5 minutes). The supernatant was removed, the pellet was reconstituted in 100 μl of PBS and 100 μl of 0.8M perchloric acid. This was then centrifuged (ambient, 1200 rpm, 5 minutes) and 180 μl of the supernatant was transferred to new tubes and stored at −80° C. until time of analysis.
# For inhibitor studies the cell lines were treated in the same way as described above but before treatment with drugs, a number of inhibitors were added: • 1) Nitrobenzylthioinosine (NBTI) (Sigma-Aldrich, St. Louis, Mo.) inhibits hENT1. • 2) A-134974 dihydrochloride hydrate (Sigma-Aldrich, St. Louis, Mo.) inhibits adenosine kinase. • 3) EHNA hydrochloride (Sigma-Aldrich, St. Louis, Mo.) inhibits adenosine deaminase.
# Cells were treated with 1 μl of 10 μM of each inhibitor and left for 5 minutes before adding the drug. The cells were then incubated for 2 hours at 37° C. with 5% CO2.
# The analytes were resolved using an ultra-performance liquid chromatography system (Accela UPLC, Thermo Scientific, UK) equipped with a Biobasic A×5 μm, 50×2.1 mm column (Thermo Electron Corporation, Murrieta, Calif., USA) and mobile phase consisting of a mixture of 10 mM NH4Ac in ACN/H2O (30:70 v/v), pH6.0 (A), and 1 mM NH4Ac in ACN/H2O (30:70 v/v), pH10.5 (B). The mobile phase gradient was employed, comprising: buffer A=95% at 0-0.5 minutes, from 95 to 0% over 1.25 minutes, held at 0% for 1.75 minutes, from 0-95% over 0.1 minutes, ending with 95% for 2.9 minutes, all at a flow rate of 500 μl/min.
# For compounds detection a triple stage quadrupole Vantage mass spectrometry system (Thermo Scientific, UK) equipped with an electrospray ion source was used. Samples were analysed in the Multiple Reaction Monitoring, negative ion modes at spray voltage 3000V.
# (§1) The dose-response curves of cytotoxicity of the drugs was determined using non-linear regression analysis of percentage cell viability versus concentration and EC50 values were obtained. The intracellular assay was conducted in five repeats for each condition. Intracellular assay was determined using paired T test (two-tailed) analysis of 8-ChloroATP/ATP concentration and p values were obtained. Drug stability in human plasma was determined using two-way ANOVA analysis. For all the analysis, Prism Software program (GraphPad Software) was used.
# [1] = Drug stability in human plasma with or without EHNA; type: in vitro ADME; conditions: for plasma concentration compared with the other compounds: human plasma, with or without EHNA
# Description: 10 ml of human plasma sample (Sera laboratories, UK) was treated with 1 μM of EHNA. 1 ml from this was taken along with 1 μl of 20 µM concentration of each drug (8-Cl-A, compound A, compound B and compound D) which was added to new tubes and incubated for 2 hours at 37° C. with 5% CO2. After incubation, 100 μl of each sample was taken and 300 μl of 100% methanol was added and left on ice for 30 minutes. After 30 minutes, the mixture was centrifuged (14000 rpm, 4° C., 10 minutes), the supernatant was transferred to new tubes and evaporated under speed vac. Then the dried pellet was reconstituted in 100 μl of 10% Acetonitrile and transferred to LC-MS vials for injection in to the UPLC-MS/MS system.
# as §1
# T24/83 = test: Viability assay, T24/83; type: cell-based
# Description: (§2) In vitro viability assay were performed to assess the effects of compounds on cell viability in selected cell lines over ˜72 hrs using the CellTiterGlo (CTG, Promega-G7573) assay. The tests were performed in duplicates with treatment of compounds at 9 points, 3.16 folds titration in 96 well plates over ˜72 hrs. The compound starting concentrations were 198 μM. Cell viability assay using CellTiterGlo in 96-well plate were performed. Compound treatment 72 hrs, standard growth conditions, duplicates. Compounds were dissolved to 40 mM with thawed […]. Compounds were serially diluted at 3.16 fold in thawed DMSO, and warmed to 37° C. before being dissolved in media (2 μl+200 μl). After compounds were dissolved in media, media containing compounds were warmed to 37° C. in incubator and then compounds in media were added to cell plates (50 μl+50 μl) in duplicates. The compounds' final concentrations were from […] to 19.9 nM. All compound solubilities were checked and recorded again, then the plates were transferred to CO2 tissue culture incubator immediately and incubated for 3 days. DMSO final concentration is 0.5%.
# CAL27 = test: Viability assay, CAL27; type: cell-based
# Description: as §2
structure (smiles),measurement,setting,value
"Nc1ncnc2c1nc(Cl)n2[C@@H]1O[C@H](COP(=O)(NCC(=O)OC2CCCCC2)Oc2ccccc2)[C@@H](O)[C@H]1O (mixture of isomers) [Compound A, Cyclohexyl 2-(((((2R,3S,4R,5R)-5-(6-amino-8-chloro-9H-purin-9-yl)-3,4-dihydroxy-tetrahydrofuran-2-yl)methoxy)(phenoxy)phosphoryl)amino)acetate]",difference in intracellular accumulation of 8-Cl-ATP on blocking adenosine kinase,"HL-60 cell line; HL-60, with A-134974",did not produce significant difference
same,difference in intracellular accumulation of 8-Cl-ATP on inhibiting hENT1,HL-60 cell line,did not produce significant difference
"Nc1ncnc2c1nc(Cl)n2[C@@H]1O[C@H](COP(=O)(NCC(=O)OCc2ccccc2)Oc2ccccc2)[C@@H](O)[C@H]1O (mixture of isomers) [Compound B, Benzyl 2-(((((2R,3S,4R,5R)-5-(6-amino-8-chloro-9H-purin-9-yl)-3,4-dihydroxytetra-hydrofuran-2-yl)methoxy)(phenoxy)phosphoryl)amino)acetate]",plasma concentration compared with the other compounds,[1],low plasma concentration
same,difference in intracellular accumulation of 8-Cl-ATP on inhibiting hENT1,HL-60 cell line,did not produce significant difference
"Nc1ncnc2c1nc(Cl)n2[C@@H]1O[C@H](CO)[C@@H](O)[C@H]1O [8-chloroadenosine, 8-Chloroadenosine, reference compound]",Top in. % T24/83,T24/83,77.5%
same,EC50,"T24/83; T24/83, read-out: Ab EC50 (μM) T24/83",2 µM
same,fold increase in human plasma concentration when adenosine deaminase was inhibited by EHNA,[1]; EHNA versus control,~3 fold
same,8-Cl-ATP/ATP ratio after inhibiting adenosine kinase,"HL-60 cell line; HL-60, with A-134974",almost zero
same,Top in. % CAL27,CAL27,76.5%
same,EC50,"CAL27; Homo sapiens, CAL-27, read-out: Ab EC50 (μM) CAL27",1.73 µM
"C[C@H](NP(=O)(OC[C@H]1O[C@@H](n2c(Cl)nc3c(N)ncnc32)C(O)C1O)Oc1cccc2ccccc12)C(=O)OCc1ccccc1 (stereo partly drawn) [Compound D, (2S)-Benzyl 2-(((((2R,3S,4R,5R)-5-(6-amino-8-chloro-9H-purin-9-yl)-3,4-dihydroxy-tetrahydrofuran-2-yl)methoxynaphthalene-1-yloxy)phosphoryl)amino)propanoate]",plasma concentration compared with the other compounds,[1],highest plasma concentration
same,difference in intracellular accumulation of 8-Cl-ATP on inhibiting hENT1,HL-60 cell line,did not produce significant difference

# From US20190375778A1, “ADENOSINE DERIVATIVES FOR USE IN THE TREATMENT OF CANCER” (NuCana plc, priority 2016, published 2019)
